Measured values as given in patent US7223865B2, “Chromogenic compounds, and use thereof as enzyme substrates” (Biomerieux, priority 2003, dated 2007).

What was measured:
[1] = system: Candida albicans (138); experiment: L-serine-aminopeptidase activity on gelled medium, Example 7; assay type: cell-based; settings: 0.3 g/l, 18 to 24 hours
Procedure: (§1) A gelled medium comprising L-seryl-9-(4-amino-phenyl)acridine (hereinafter referred to as L-Ser-4-APA) is prepared as follows: 30 milligrams of L-Ser-4-APA are added to 4 grams of Columbia agar, that are added to 0.1 liter of distilled water and then autoclaved. This reaction medium is autoclaved at 116° C. for 20 minutes.
(§2) Microorganisms derived from the applicant's collection were seeded onto this medium using a suspension of 0.5 McFarland. The dishes were incubated at 37° C. for 24 hours. Samples of 10 μl of each suspension were cultured so as to produce colonies. The colonies formed were examined visually after incubation for 18 to 24 hours.
(§3) The color of these colonies was noted before and after the addition of a drop of acetic acid, hereinafter referred to as GAA (glacial acetic acid).

[2] = system: Enterococcus faecalis (117); experiment: as above; assay type: cell-based; settings: 0.3 g/l, 18 to 24 hours
Procedure: as §1, §2, §3

[3] = system: Escherichia coli (009); experiment: as above; assay type: cell-based; settings: 0.3 g/l, 18 to 24 hours
Procedure: as §1, §2, §3

[4] = system: Klebsiella pneumoniae (012); experiment: as above; assay type: cell-based; settings: 0.3 g/l, 18 to 24 hours
Procedure: as §1, §2, §3

[5] = system: Staphylococcus aureus (008); experiment: as above; assay type: cell-based; settings: 0.3 g/l, 18 to 24 hours
Procedure: as §1, §2, §3

[6] = system: Yersinia enterocolitica (061); experiment: as above; assay type: cell-based; settings: 0.3 g/l, 18 to 24 hours
Procedure: as §1, §2, §3

[7] = substrate dissolution in autoclaved Columbia agar medium; assay type: physicochemical; settings: 30 milligrams with 4 grams of Columbia agar in 0.1 liter of distilled water, autoclaved at 116° C. for 20 minutes
Procedure: as §1

Structure (SMILES): N[C@@H](CO)C(=O)Nc1ccc(-c2c3ccccc3nc3ccccc23)cc1 [L-Ser-4-APA, L-Seryl-9-(4-aminophenyl)acridine]
- Color ([1]; after GAA): cream
- Color ([1]; before GAA): cream
- Color ([2]; after GAA): cream
- Color ([2]; before GAA): cream
- Color ([3]; after GAA): pale orange
- Intensity ([3]; after GAA): 2
- Color ([3]; before GAA): cream
- Color ([4]; after GAA): pale orange
- Intensity ([4]; after GAA): 2
- Color ([4]; before GAA): cream
- Color ([5]; after GAA): cream
- Color ([5]; before GAA): cream
- Color ([6]; after GAA): pale orange
- Intensity ([6]; after GAA): 2
- Color ([6]; before GAA): cream
- substrate in solution in the medium [7]: Most of the substrate is in solution
